Assay [1] addresses T1, M1-type muscarinic cholinergic receptor (Rattus norvegicus, UniProt P08482).
T1 construct: on a homogenate of rat hippocampus; from tissue; host or cells: rat hippocampus homogenate
T1 sequence (P08482 1-460): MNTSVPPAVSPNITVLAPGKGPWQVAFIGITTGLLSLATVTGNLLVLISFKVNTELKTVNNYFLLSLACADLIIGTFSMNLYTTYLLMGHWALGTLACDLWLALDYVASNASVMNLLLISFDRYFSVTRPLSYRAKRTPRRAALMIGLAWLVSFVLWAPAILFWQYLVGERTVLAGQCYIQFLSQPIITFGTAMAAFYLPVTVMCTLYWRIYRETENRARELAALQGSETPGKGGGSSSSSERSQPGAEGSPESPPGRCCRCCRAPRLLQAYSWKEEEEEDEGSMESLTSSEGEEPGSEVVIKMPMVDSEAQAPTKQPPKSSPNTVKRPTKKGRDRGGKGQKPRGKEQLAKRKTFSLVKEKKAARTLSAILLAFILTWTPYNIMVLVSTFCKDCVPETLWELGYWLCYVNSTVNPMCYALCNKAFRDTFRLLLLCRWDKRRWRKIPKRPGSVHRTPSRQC
As to the kind of experiment: Affinity for M1-type muscarinic cholinergic receptor: displacement of [3H]-pirenzepine on rat hippocampus homogenate. Type of assay: binding. The conditions noted are these: for IC50: displacement of [3H]-PZ (1 nM), rat hippocampus homogenate, 2 h at 4° C., pH 7.40; for r = M2/M1 (ratio of the M2 and M1 IC50 values, selectivity towards the M1 receptor): ratio of IC50 3H-NMS (guinea-pig ileum) to IC50 3H-PZ (rat hippocampus). From the text: (§1) In vitro, we studied the interaction of the products (II) with tritiated pirenzepine and tritiated N-methylscopolamine bound with a high affinity to membranes of rat hippocampus and membranes of smooth muscle of guinea-pig ileum, respectively.
A) Test for affinity for the M1 -type muscarinic cholinergic receptor
The interaction of molecules with the M1 -type muscarinic receptors was studied by in vitro measurement, on a homogenate of rat hippocampus, of the displacement of tritiated pirenzepine ([^3 H]-PZ) from its specific binding sites. Aliquots (100 μl) of a 5% (w/v) homogenate of rat hippocampus in an Na2 HPO4 buffer (50 mM, pH 7.40) are incubated for 2 h at 4° C. in the presence of [^3 H]-PZ (76 Ci/mmol; final concentration: 1 nM) and increasing concentrations of test products. The final volume is 2 ml. The reaction is stopped by centrifugation for 10 min at 50,000×g. After decantation and washing of the residues, the bound radioactivity is counted by liquid scintillation. The non-specific binding is determined in the presence of 10 μmol/l of atropine sulfate. The 50% inhibitory concentration (IC50) is determined graphically (Ref.: Watson J. D., Roeskoe W. R. and Yamamura H. I., Life Sci., 31, 2019-2029, 1982).
(§2) Table 3 indicates the affinities of the products of the invention for the M1 and M2 receptors. The results are expressed as 50 percent inhibitory concentrations (IC50), i.e. the concentration (in μM) which causes a 50% inhibition of the binding of the tritiated ligand to the membrane receptors. The IC50 for displacement of ^3 H-pirenzepine represents the affinity for the M1 receptor; the IC50 for displacement of ^3 H-NMS represents the affinity for the M2 receptor.
(§3) The Table also indicates, in the 3rd column, the ratio r of the M2 and M1 IC50 values, which expresses the selectivity of the products towards the M1 receptor.
For orientation: Displacement assays read how much labelled ligand stays bound in the presence of the test substance.

Assay [2] has as its target T2, M2-type muscarinic cholinergic receptor (Cavia porcellus, UniProt H0VRN8).
T2 construct: on a homogenate of smooth muscle of guinea-pig ileum; from tissue; host or cells: guinea-pig ileum smooth muscle homogenate
T2 sequence (H0VRN8 1-466): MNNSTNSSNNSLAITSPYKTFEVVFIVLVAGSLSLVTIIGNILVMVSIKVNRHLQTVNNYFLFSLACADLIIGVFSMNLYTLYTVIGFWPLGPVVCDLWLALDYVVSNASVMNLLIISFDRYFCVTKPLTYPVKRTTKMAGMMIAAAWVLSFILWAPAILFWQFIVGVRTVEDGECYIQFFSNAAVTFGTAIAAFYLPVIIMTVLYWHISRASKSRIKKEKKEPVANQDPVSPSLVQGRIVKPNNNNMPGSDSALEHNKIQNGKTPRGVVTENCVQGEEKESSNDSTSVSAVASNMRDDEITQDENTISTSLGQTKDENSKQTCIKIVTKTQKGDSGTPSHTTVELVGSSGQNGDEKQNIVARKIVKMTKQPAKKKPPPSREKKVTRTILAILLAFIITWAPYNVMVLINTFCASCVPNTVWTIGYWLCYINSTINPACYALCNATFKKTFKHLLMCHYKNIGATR
Briefly: Affinity for M2-type muscarinic cholinergic receptor: displacement of [3H]-N-methylscopolamine on guinea-pig ileum smooth muscle homogenate. Type of assay: binding. The conditions noted are these: displacement of [3H]-NMS (0.3 nM), 20 min at 30° C., pH 7.5.
From the text: as §1
B) Test for affinity for the M2 -type muscarinic cholinergic receptor.
The interaction with the M2 -type muscarinic receptors was studied by in vitro measurement, on a homogenate of smooth muscle of guinea-pig ileum, of the displacement of tritiated N-methylscopolamine ([^3 H]-NMS) from its specific binding sites. Aliquots (50 μl) of a 0.625% (w/v) homogenate of smooth guinea-pig muscle in HEPES buffer (20 mM) containing NaCl (100 mM) and MgCl2 (10 mM) (final pH: 7.5) are incubated for 20 min at 30° C. in the presence of [^3 H]-NMS (85 Ci/mmol; final concentration: 0.3 nM) and increasing concentrations of test products. The final volume is 1 ml. The reaction is stopped by centrifugation for 5 min at 15,000×g. The non-specific binding is determined in the presence of 10 μmol-l of atropine sulfate (Ref.: Hammer R., Berrie C. P., Birdsall N. I. M., Burgen A. S. V. and Hulme E. C., Nature, 283, 90-92, 1980; Hulme E. C., Birdsall N. I. M., Burgen A. S. V. and Mettha P., Mol. Pharmacol., 14, 737-750, 1978).
as §2, §3

The subject of assay [3] is rotational behavior induced by intrastriatal pirenzepine (M1 central muscarinic cholinergic receptors). As to the kind of experiment: Antagonism of rotational behavior induced by intrastriatal injection of pirenzepine in mice. Type of assay: in vivo, mice (female, Swiss, CD 1 printed as DC 1, Charles River). The conditions noted are these: 3 mg/kg p.o., 4 hours before pirenzepine 1 μg into right striatum; 10 animals per dose; Student t test, *p < 0.05, **p < 0.01. How it is done:
The compounds of formula (II) were also subjected to an in vivo study. Pirenzepine (PZ) is a specific antagonist of ligands for the M1 central muscarinic cholinergic receptors. The intrastriatal injection of PZ into mice induces rotational behavior. The antagonism of this behavior by the test products was studied. The products according to the invention are administered orally after solubilization in distilled water or suspension in a 5% solution of gum arabic. The control animals receive an injection of the pure solvent under the same conditions. The animals used are female mice (Swiss, DC 1, Charles River, France) with a body weight of between 25 and 30 grams. Pirenzepine is dissolved in a phosphate buffer; the pH of the solution is 6. The test products or their solvents are administered orally in a volume of 0.4 ml per 20 g of body weight, 4 hours before a direct injection of pirenzepine at a dose of 1 μg of product in 1 μl of solvent into the right striatum of the mouse, according to the method described by P. Worms et al. in Psychopharmacology 1987, 93, 489-493. The number of contralateral rotations (rotations in the opposite direction to the side injected) was counted for three 2-minute periods after the injection of pirenzepine: minutes 2 to 4, 8 to 10 and 13 to 15. Each treatment involves 10 animals per dose. For each treatment, the total number of rotations and the percentage antagonism compared with the control group are calculated. The results obtained with the products of formula (II) administered orally at a dose of 3 mg/kg of body weight are collated in Table 4.

The subject of the next assay is cholinergic receptors. As to the kind of experiment: Ligand properties for the cholinergic receptors (subsequent studies). Type of assay: binding.
For assay [4] the following is noted: French patents 2 141 697, 2 510 997, 2 510 998; cited from earlier work.

The term IC50 denotes the concentration needed to halve the response being measured. `CCc1cc(NCCN2CCOCC2)nnc1-c1ccccc1` [SR 96169 A]: in assay [1], the 50% inhibitory concentration (IC50) was 3.7 µM; the “r = M2/M1 (ratio of the M2 and M1 IC50 values, selectivity towards the M1 receptor)” value is listed as 8. In addition, the concentration for half-maximal inhibition (IC50) in assay [2] worked out at 30 µM. Further, the “% inhibition of rotations” value in assay [3] was -46%.

As to `CCN(CC)CCNc1cc(C)c(-c2ccccc2)nn1` [SR 96150 A], in assay [1], the IC50 stood at 0.06 µM; the “r = M2/M1 (ratio of the M2 and M1 IC50 values, selectivity towards the M1 receptor)” value is 47. This compound also showed a concentration for half-maximal inhibition (IC50) in assay [2] of 2.8 µM. In addition, the “% inhibition of rotations” value in assay [3] is -49%.

As for `CCc1cc(NCCN(CC)CC)nnc1-c1ccccc1` [SR 96180 A], the values for the 50% inhibitory concentration (IC50) in assay [1] and in assay [2] were 0.07 µM and 1 µM, respectively. In addition, the “r = M2/M1 (ratio of the M2 and M1 IC50 values, selectivity towards the M1 receptor)” value in assay [1] is reported as 14. Moreover, the “% inhibition of rotations” value in assay [3] is given as -38%.

For the compound `Cc1cc(NCCN2CCOCC2)nnc1-c1ccccc1` [(I), 3-(2-morpholinoethylamino)-5-methyl-6-phenylpyridazine], the “properties as a ligand for the cholinergic receptors (in words)” value in the assay with cholinergic receptors is given as “possesses valuable properties as a ligand for the cholinergic receptors”. Besides, the antidepressant properties result in assay [4] is on record as “antidepressant properties of moderate intensity”.

`CCCc1cc(NCCN(CC)CC)nnc1-c1ccccc1` [SR 96187 A]: in assay [1], the half-inhibitory concentration (IC50) amounted to 0.4 µM; the “r = M2/M1 (ratio of the M2 and M1 IC50 values, selectivity towards the M1 receptor)” value is recorded as 9. The IC50 in assay [2] was determined as 3.5 µM. In assay [3], the “% inhibition of rotations” value was -37%.

As to `CCCc1cc(NCCN2CCOCC2)nnc1-c1ccccc1` [SR 96186 A], in assay [1], the IC50 was 0.6 µM; the “r = M2/M1 (ratio of the M2 and M1 IC50 values, selectivity towards the M1 receptor)” value came out at 30. In addition, the half-maximal inhibitory concentration (IC50) in assay [2] amounted to 18 µM. Moreover, the “% inhibition of rotations” value in assay [3] is -41%.

Turning to `Cc1cc(NCCN2CCOCC2)nnc1-c1ccccc1.O=C(O)C(=O)O.O=C(O)C(=O)O` [CM 30316, 3-(2-Morpholinoethylamino)-5-methyl-6-phenylpyridazine dioxalate], in assay [1], the IC50 came to 0.55 µM; the “r = M2/M1 (ratio of the M2 and M1 IC50 values, selectivity towards the M1 receptor)” value is on record as 182. Also, the IC50 in assay [2] is 100 µM. Besides, the “% inhibition of rotations” value in assay [3] is on record as -20%.

These data come from patent US5081119A, “Use of 5-alkylpyridazine derivatives as drugs active on the cholinergic system” (priority 1989, dated 1992).
